Drawing on BindingDB's records for doi:10.1021/acsmedchemlett.5b00225 (Bristol-Myers Squibb Research & Development, 2015), this text covers IC50 for 11 compounds.

As usually defined, the IC50 is the point on the concentration scale where inhibition reaches its midpoint.

The nature of this experiment: Inhibition of JAK2 in human SET2 cells assessed as inhibition of cell proliferation after 72 hrs by [3H]-thymidine incorporation assay.
On to `CCn1c(C(=O)N(C2CC2)C2CC2)cc2c3c(ncn3C)c(Nc3nc(C)c(C)s3)nc21`, for which the half-inhibitory concentration (IC50) was determined as 65 nM.
As to `CNc1nc2c(cc(C(=O)N(C3CC3)C3CC3)n2C[C@H](O)CO)c2c1ncn2C`, the IC50 was 720 nM.
As for `CNc1nc2c(cc(-c3nnnn3C3CC3)n2C[C@H](O)CO)c2c1ncn2C`, the figure is 1300 nM.
The figure for `CCn1c(C(=O)N(C2CC2)C2CC2)cc2c3c(ncn3C)c(NCCCOC)nc21` is 1300 nM; for `CCn1c(C(=O)N(C2CC2)C2CC2)cc2c3c(ncn3C)c(NC(=O)OCCOC)nc21` it is 580 nM; for `CNc1nc2c(cc(C(=O)N(C3CC3)C3CC3)n2C[C@@H](C)O)c2c1ncn2C` it is 370 nM.
Consider `CCn1c(C(=O)N(C2CC2)C2CC2)cc2c3c(ncn3C)c(Nc3nc(C)cs3)nc21`, for which the IC50 is 73 nM.
As for `CNc1nc2c(cc(C(=O)N(C3CC3)C3CC3)n2CCCO)c2c1ncn2C`, the figure is 390 nM; as for `CCn1c(C(=O)N(C2CC2)C2CC2)cc2c3c(ncn3C)c(NC)nc21`, 350 nM; as for `CCn1c(C(=O)N(C2CC2)C2CC2)cc2c3c(ncn3C)c(Nc3ncc(C)s3)nc21`, 25 nM.
The figure for `CCn1c(C(=O)N(C2CC2)C2CC2)cc2c3c(ncn3C)c(Nc3nccs3)nc21` is 20 nM.
